Experimental data taken from patent US20250154197A1, “LIPOLYTIC PEPTIDES” (FUNDACIÓ HOSPITAL UNIVERSITARI VALL D'HEBRON - INSTITUT DE …, priority 2021, published 2025).
Where no end group is shown, it is not given here. [ ]: non-standard residue; d: D form. The star is where a group is joined. Palmitoyl = CCCCCCCCCCCCCCCC(=O)*; Propionyl = CCC(=O)*

How the values were obtained:
[1] = tested on: human subcutaneoous mature adipocytes; test: Lipolytic activity: glycerol release in human adipocytes (Lipolysis Assay kit); assay type: cell-based; details: human subcutaneous mature adipocytes
[2] = tested on: 3T3-L1 mouse adipocytes; test: Lipolytic activity: glycerol release in differentiated 3T3-L1 mouse adipocytes (12 h); assay type: cell-based; details: 3T3-L1 mouse adipocytes, 12 h
Protocol: JCRB9014-A) from Tebu-Bio (Tebu-bio, Barcelona, Spain). Briefly, mouse adipocytes (3T3-L1 cells) were cultured in 48 well plates as described previously (Saez-Lopez et al., 2020). Adipocytes were differentiated using cell culture reagents purchased from Tebu-Bio and following the manufacturer's instructions. At day of differentiation cells were treated in duplicates with vehicle (DMSO), Caffeine (100 μg/ml), and each of the peptides at the specified doses in Table 6a below. At the end of the experiment (12 h), supernatants were collected and glycerol content was measured using a Glycerol Assay Kit (Sigma) following manufacturer's instructions.

Substance	Lipolysis Activity measured as Glycerol (μM) release in media ([1]; 100 μg/ml)	Lipolysis Activity measured as Glycerol (μM) release in media ([1]; 25 μg/ml)	Lipolysis Activity measured as Glycerol (μM) release in media ([1]; 50 μg/ml)	Lipolysis Activity measured as Glycerol (μM) release in media ([2]; 1 μg/ml)	Lipolysis Activity measured as Glycerol (μM) release in media ([2]; 10 μg/ml)	Lipolysis Activity measured as Glycerol (μM) release in media ([2]; 100 μg/ml)	Lipolysis Activity measured as Glycerol (μM) release in media ([1]; 75 μg/ml)
Ac-LN-LD-LP-LE-G-LL-LY (Ac-NDPEGLY) [Acetyl-NH-GP3DM-12, N-term CH3CONH, C-term COOH]	138.6 µM	–	–	–	–	–	–
Ac-NDLEGLY (Ac-[dN][dD][dL][dE]G[dL][dY]-OH; SMILES CC(=O)N[C@H](CC(N)=O)C(=O)N[C@H](CC(=O)O)C(=O)N[C@H](CC(C)C)C(=O)N[C@H](CCC(=O)O)C(=O)NCC(=O)N[C@H](CC(C)C)C(=O)N[C@H](Cc1ccc(O)cc1)C(=O)O) [GP3DM-25, N-term CH3CONH, C-term COOH]	121.6 µM	134.2 µM	104.4 µM	–	–	–	–
Ac-NDLEGLY-NH2 (Ac-[dN][dD][dL][dE]G[dL][dY]-NH2; SMILES CC(=O)N[C@H](CC(N)=O)C(=O)N[C@H](CC(=O)O)C(=O)N[C@H](CC(C)C)C(=O)N[C@H](CCC(=O)O)C(=O)NCC(=O)N[C@H](CC(C)C)C(=O)N[C@H](Cc1ccc(O)cc1)C(N)=O) [GP3DM-29, N-term CH3CONH, C-term CONH2]	131.9 µM	123.8 µM	72.4 µM	–	–	–	–
Ac-NDPEGLY (Ac-[dN][dD][dP][dE]G[dL][dY]-OH; SMILES CC(=O)N[C@H](CC(N)=O)C(=O)N[C@H](CC(=O)O)C(=O)N1CCC[C@@H]1C(=O)N[C@H](CCC(=O)O)C(=O)NCC(=O)N[C@H](CC(C)C)C(=O)N[C@H](Cc1ccc(O)cc1)C(=O)O) [Acetyl-NH-EDL67, N-term CH3CONH, C-term COOH]	74.2 µM	66.2 µM	121.0 µM	–	–	–	–
Ac-NDPEGLY-NH2 (Ac-[dN][dD][dP][dE]G[dL][dY]-NH2; SMILES CC(=O)N[C@H](CC(N)=O)C(=O)N[C@H](CC(=O)O)C(=O)N1CCC[C@@H]1C(=O)N[C@H](CCC(=O)O)C(=O)NCC(=O)N[C@H](CC(C)C)C(=O)N[C@H](Cc1ccc(O)cc1)C(N)=O) [GP3DM-27, N-term CH3CONH, C-term CONH2]	142.7 µM	72.6 µM	133.3 µM	–	–	–	–
Ac-TWDPEGVIFY-NH2 (Ac-[dT][dW][dD][dP][dE]G[dV][dI][dF][dY]-NH2; SMILES CC[C@@H](C)[C@@H](NC(=O)[C@H](NC(=O)CNC(=O)[C@@H](CCC(=O)O)NC(=O)[C@H]1CCCN1C(=O)[C@@H](CC(=O)O)NC(=O)[C@@H](Cc1c[nH]c2ccccc12)NC(=O)[C@H](NC(C)=O)[C@H](C)O)C(C)C)C(=O)N[C@H](Cc1ccccc1)C(=O)N[C@H](Cc1ccc(O)cc1)C(N)=O) [GP3D-AcNH2, N-term CH3CONH, C-term CONH2]	–	–	–	606 µM	464 µM	472 µM	–
CH3(CH2)14CONH-NDLEGLY (Palmitoyl-[dN][dD][dL][dE]G[dL][dY]-OH; SMILES CCCCCCCCCCCCCCCC(=O)N[C@H](CC(N)=O)C(=O)N[C@H](CC(=O)O)C(=O)N[C@H](CC(C)C)C(=O)N[C@H](CCC(=O)O)C(=O)NCC(=O)N[C@H](CC(C)C)C(=O)N[C@H](Cc1ccc(O)cc1)C(=O)O) [GP3DM-28, N-term CH3(CH2)14CONH, C-term COOH]	106.0 µM	50.5 µM	122.6 µM	–	–	–	–
DN-LD-LP-LE-G-LL-LY ([dN]DPEGLY) [GP3DM-13, N-term NH2, C-term COOH]	42.1 µM	–	49.5 µM	–	–	–	–
DPEGVFY (H-[dD][dP][dE]G[dV][dF][dY]-OH; SMILES CC(C)[C@@H](NC(=O)CNC(=O)[C@@H](CCC(=O)O)NC(=O)[C@H]1CCCN1C(=O)[C@H](N)CC(=O)O)C(=O)N[C@H](Cc1ccccc1)C(=O)N[C@H](Cc1ccc(O)cc1)C(=O)O) [GP3D-7 I II VIII, N-term NH2, C-term COOH]	–	–	–	485 µM	325 µM	340 µM	–
EtCONH-NDLEGLY (Propionyl-[dN][dD][dL][dE]G[dL][dY]-OH; SMILES CCC(=O)N[C@H](CC(N)=O)C(=O)N[C@H](CC(=O)O)C(=O)N[C@H](CC(C)C)C(=O)N[C@H](CCC(=O)O)C(=O)NCC(=O)N[C@H](CC(C)C)C(=O)N[C@H](Cc1ccc(O)cc1)C(=O)O) [GP3DM-26, N-term CH3CH2CONH, C-term COOH]	149.6 µM	98.4 µM	140.0 µM	–	–	–	–
LN-DD-LP-LE-G-LL-LY (N[dD]PEGLY) [GP3DM-14, N-term NH2, C-term COOH]	52.8 µM	–	53.1 µM	–	–	–	–
LN-LD-DP-LE-G-LL-LY (ND[dP]EGLY) [GP3DM-15, N-term NH2, C-term COOH]	47.2 µM	–	42.0 µM	–	–	–	–
LN-LD-LP-DE-G-LL-LY (NDP[dE]GLY) [GP3DM-16, N-term NH2, C-term COOH]	44.1 µM	–	41.5 µM	–	–	–	–
LN-LD-LP-LE-G-DL-LY (NDPEG[dL]Y) [GP3DM-17, N-term NH2, C-term COOH]	53.6 µM	–	47.4 µM	–	–	–	–
LN-LD-LP-LE-G-LL-DY (NDPEGL[dY]) [GP3DM-18, N-term NH2, C-term COOH]	63.5 µM	–	44.4 µM	–	–	–	–
NDEGLFY (H-[dN][dD][dE]G[dL][dF][dY]-OH; SMILES CC(C)C[C@@H](NC(=O)CNC(=O)[C@@H](CCC(=O)O)NC(=O)[C@@H](CC(=O)O)NC(=O)[C@H](N)CC(N)=O)C(=O)N[C@H](Cc1ccccc1)C(=O)N[C@H](Cc1ccc(O)cc1)C(=O)O) [GP3DM-19, N-term NH2, C-term COOH]	123.3 µM	87.1 µM	64.0 µM	–	–	–	–
NDEGLY [GP3DM-22] (H-[dN][dD][dE]G[dL][dY]-OH; SMILES CC(C)C[C@@H](NC(=O)CNC(=O)[C@@H](CCC(=O)O)NC(=O)[C@@H](CC(=O)O)NC(=O)[C@H](N)CC(N)=O)C(=O)N[C@H](Cc1ccc(O)cc1)C(=O)O) [N-term NH2, C-term COOH]	131.9 µM	52.1 µM	59.5 µM	–	–	–	–
NDEGLY [GP3DM-23] (H-[dN][dD][dE]G[dL][dY]-OH; SMILES CC(C)C[C@@H](NC(=O)CNC(=O)[C@@H](CCC(=O)O)NC(=O)[C@@H](CC(=O)O)NC(=O)[C@H](N)CC(N)=O)C(=O)N[C@H](Cc1ccc(O)cc1)C(=O)O) [N-term NH2, C-term COOH]	170.0 µM	139.7 µM	97.7 µM	–	–	–	–
NDEGLY [GP3DM-24] (H-[dN][dD][dE]G[dL][dY]-OH; SMILES CC(C)C[C@@H](NC(=O)CNC(=O)[C@@H](CCC(=O)O)NC(=O)[C@@H](CC(=O)O)NC(=O)[C@H](N)CC(N)=O)C(=O)N[C@H](Cc1ccc(O)cc1)C(=O)O) [N-term NH2, C-term COOH]	148.6 µM	105.2 µM	111.0 µM	–	–	–	–
NDLEGLY (H-[dN][dD][dL][dE]G[dL][dY]-OH; SMILES CC(C)C[C@@H](NC(=O)CNC(=O)[C@@H](CCC(=O)O)NC(=O)[C@@H](CC(C)C)NC(=O)[C@@H](CC(=O)O)NC(=O)[C@H](N)CC(N)=O)C(=O)N[C@H](Cc1ccc(O)cc1)C(=O)O) [GP3DM-21, N-term NH2, C-term COOH]	102.5 µM	116.5 µM	116.7 µM	–	–	–	–
NDPEGY (H-[dN][dD][dP][dE]G[dY]-OH; SMILES NC(=O)C[C@@H](N)C(=O)N[C@H](CC(=O)O)C(=O)N1CCC[C@@H]1C(=O)N[C@H](CCC(=O)O)C(=O)NCC(=O)N[C@H](Cc1ccc(O)cc1)C(=O)O) [GP3DM-20, N-term NH2, C-term COOH]	118.7 µM	128.1 µM	117.7 µM	–	–	–	–
WDPEGVF (H-[dW][dD][dP][dE]G[dV][dF]-OH; SMILES CC(C)[C@@H](NC(=O)CNC(=O)[C@@H](CCC(=O)O)NC(=O)[C@H]1CCCN1C(=O)[C@@H](CC(=O)O)NC(=O)[C@H](N)Cc1c[nH]c2ccccc12)C(=O)N[C@H](Cc1ccccc1)C(=O)O) [GP3D-7 I VIII X, N-term NH2, C-term COOH]	46.85 µM	14.57 µM	36.68 µM	–	–	–	42.95 µM
acetyl-hexapeptide-39 (Ac-SIYVAT-NH2) [Hexa-39, reference compound]	29.21 µM	–	–	–	–	–	–
